Results: US20100184807A1, “Methods to inhibit tumor cell growth by using proton pump inhibitors” (Bio-Quant, Inc., priority 2008, published 2010)

System: GDM-1 (leukemia)
Assay: MTT tumor cell growth assay
Format: cell-based
Details: GDM-1 (FIG. 3J); 10 μM
Procedure: In one study, adherent cells were plated approximately 16-24 hours before the day of the experiment in 180 μl growth media. On the day of the experiment, the plated adherent cells were analyzed and counted and suspension cells were plated in 180 μl growth media. 10× lansoprazole compounds and vehicle was prepared. The 10× lansoprazole compounds were prepared by diluting lansoprazole to final concentrations of 100 μM, 30 μM, 10 μM, 3 μM, and 1 μM. A vehicle was prepared by preparing a solution of PBS, equivalent to the volume used for 10 μM lansoprazole wherein the 1× solution constitutes ˜0.06% PBS. 10 μl of the various 10× lansoprazole solutions and the vehicle were added to the cells. The cells were incubated at 37° C., 5% CO2 for 48 hours. The media was then aspirated. The cell suspension was then spun at 1500 RPM for 10 minutes. The media was slowly removed. 200 μl of MTT solution was added to each well with a concentration of 0.863 mg/ml MTT in the growth media. The cells were incubated at 37° C., 5% CO2 for 4 hours and the medium is then aspirated. The plate containing the cell suspension was then spun at 1500 RPM for 10 minutes. The media was slowly removed using a multichannel pipettor. 100 μl of DMSO was then added to each well. The cells were incubated at 37° C., 5% CO2 for 5 minutes and the absorbance was obtained at 560 nm using a Dynex Opsys MR plate reader. The cells used for this procedure were the following cell lines: IGROV1 (ovarian cancer); OVCAR 8 (ovarian cancer); ES-2 (ovarian cancer); CAOV3 (ovarian cancer); OVCAR5 (ovarian cancer); SUDHL4 (lymphoma); RPMI8226 (myeloma); RPMI6666 (Hodgkin's lymphoma); NC37 (lymphoma); GDM-1 (leukemia); MC/CAR (prostate cancer); DU-145 (prostate cancer), J45-01 (leukemia), MOLT3 (leukemia), HUT78, J-gamma-1 (leukemia), MCF7 […], COL0205 (colon cancer), HL60 CLONE 15 (leukemia), T47D (breast cancer), P116 (intestinal cancer), KU812 (leukemia), SW620 (colon cancer), MK92-M1 (lymphoma), MV-4-11 (leukemia), HS578T (breast cancer), HT29 (colon cancer), HCT 116 (colon cancer), CAKI-1 (kidney cancer), A549 (lung cancer), H460 (lung cancer), A3 (colon cancer), MDA-MB231 […], MALME 3M (melanoma), RXF393 (kidney cancer), RS4.11 (leukemia), PC3 (prostate cancer), OVCAR3 (ovarian cancer), MDA-MB435 (melanoma), HUT102 (lymphoma), HL60 (leukemia), CCRF-CEM (leukemia), HUT78 (lymphoma), 786-O (kidney cancer), ACHN (kidney cancer), A498 (kidney cancer), H226 (lung cancer), H522 (lung cancer), HOP92 (lung cancer), SNB 19 (brain cancer), OVCAR4 (ovarian cancer), H9 (lymphoma), UO-31 (kidney cancer), HH (lymphoma), DAUDI (leukemia), LOXIMVI (melanoma), NAMALWA (lymphoma), EKVX (lung cancer), DOHH2 (lymphoma), SNB75 (brain cancer), SKMEL28 (melanoma), SKMEL5 (melanoma), SKMEL2 (melanoma), M14 (melanoma), UACC 257 (melanoma), H332M (lung cancer), KM12 (colon cancer), HCC2998 (colon cancer), G401 (kidney cancer), RS1184 (lymphoma), MC116 (leukemia), MOLT4 (leukemia), JM1 (liver cancer), HOP-62 (lung cancer), HCT-15 (colon cancer), SF-539 (brain cancer), SF295 (brain cancer), ST486 (lymphoma), U251 (brain cancer), and UACC-62 (melanoma).
Experiments, as described in Example I were conducted with lansoprazole, omeprazole and SCH 28080 at concentrations of 1 μM, 10 μM, and 100 μM. FIGS. 3A-3K show the experimental results when tumor cells from the following cell lines were treated with lansoprazole, omeprazole, and SCH 28080: IGROV1 (FIG. 3A), OVCAR8 (FIG. 3B), ES-2 (FIG. 3C), CAOV3 (FIG. 3D), OVCAR5 (FIG. 3E), SUDHL4 (FIG. 3F), RPMI8226 (FIG. 3G), RPMI6666 (FIG. 3H), NC37 (FIG. 3I), GDM-1 (FIG. 3J), and MC/CAR (FIG. 3K).

Structure (SMILES): Cc1nc2c(OCc3ccccc3)cccn2c1CC#N [SCH28080, SCH 28080]
- reducing tumor cell growth: effective in reducing tumor cell growth
